Laboratory results reported in US4314061A, “Certain 3,6-bis-(heteroaminoalkoxy) acridines” (priority 1980, dated 1982).

Legend:
tumor = settings: experimental studies in animals; cited from earlier work
[1] = test system: malignant melanoma, acute leukemia, lung cancer, breast cancer; settings: early clinical trials; cited from earlier work
normal mouse bone marrow = test: Effect on normal mouse bone marrow; type: in vivo, C57 BL6 male mice; settings: 24 hours after treatment; test compound oral, Cytoxan intraperitoneal
Experimental: The effect of drugs on normal mouse bone marrow is evaluated by determining total cell counts of femurs and by the ability of surviving cells to form colonies in semi-solid medium. The test compound is administered orally and the reference drug Cytoxan is administered intraperitoneally to C57 BL6 male mice. One femur from each of three mice per dose level is assayed 24 hours after treatment. Counts of nucleated cells are performed on pooled marrow suspensions and the clonogenic assay is performed by plating 50,000 cells in one ml. of culture medium in each of four culture dishes. The medium to support bone marrow progenitor cell growth is McCoy's medium supplemented with 0.9% methocel, 1.8% human serum albumin, 10% bovine fetal serum and 10% "conditioned" L-cell medium. Cultures are incubated at 37° C. in a humidified atmosphere and colonies are counted at seven days.

B16 melanoma = test: Surgical-adjuvant antitumor activity against B16 melanoma implanted subcutaneously in footpads; type: in vivo, BDF1 mice; settings: 100 mg/kg intraperitoneal
Experimental: BDF1 mice were inoculated subcutaneously in the right hind footpad with 5×10^5 viable B16 melanoma cells, on day zero. The drug was prepared in normal saline and administered by the oral route once daily, on days 1, 7, and 13 following tumor implantation, at doses range from 50 mg/kg to 400 mg/kg. A control group of mice received a saline placebo instead of drug, and another group of tumor bearing mice received the positive control drug cyclophosphamide, at 100 mg/kg, by intraperitoneal injection. On the 21st day after tumor implantation, the mice were anesthesized with Nembutal, and the tumor bearing feet were surgically amputated above the ankle joint. The surgical incision was swabbed with alcohol and sealed with stainless steel wound clips. The tumor bearing feet were individually weighed and the average weight of a normal foot (determined by weighing amputated feet from non-tumor bearing mice of the same sex, age, and body weight) was subtracted to obtain the weight of tumor tissue in the amputated feet. Mice were then observed for deaths until the 90th day after tumor implantation. […]
^1 BDF1 male mice inocluated with 5 × 10^5 B16 melanom
cells subcutaneously in footpad on day zero;
(§1) 3,6bis(2-diethylaminoethoxy)acridine trihydrochloride administered orally
(§2) and Cyclophosphamide intraperitoneally, on days 1, 7, and 13 following
(§3) ^2 Average tumor weight determined after surgical amputation of tumor
bearing foot on day 21 following tumor implantation.

B-16 melanoma = test: Potentiation of cyclophosphamide (Cytoxan) activity against B16 melanoma in mice; type: in vivo, BDF1 mice
Experimental: BDF1 male mice were inoculated subcutaneously with 0.25 ml. of a 10% B-16 melanoma homogenate. Cyclophosphamide was administered intraperitoneally at 80 mg./kg. the second day following the day of tumor implantation. Test compounds were given intraperitoneally on days +6, +8 and +10 relative to tumor implantation. […]
BDF1 male mice inoculated subcutaneously with 0.25 ml. of a 10% tumo
homogenate on day 0. Drugs were administered intraperitoneally;
cyclophosphoamide on day 2, 3,6bis(2-diethylaminoethoxy)acridine
trihydrochloride on days 6, 8 and 10.
^1 Number of survivors over number of mice treated.

[2] = test system: Rauscher Virus-Induced Leukemia; test: Inhibition of splenomegaly in mice with Rauscher virus-induced leukemia; type: in vivo, Balb/c mice
Lewis lung carcinoma = test: Surgical-adjuvant antitumor activity against Lewis lung carcinoma implanted subcutaneously in footpads; type: in vivo, BDF1 mice; settings: 100 mg/kg intraperitoneal
Experimental: BDF1 mice were inoculated subcutaneously in the right hind footpad with 5×10^5 viable Lewis Lung carcinoma cells, on day zero. […] A control group of mice received a saline placebo instead of drug, and another group of tumor bearing mice received the positive control drug cyclophosphamide, at 100 mg/kg, administered by intraperitoneal injection. On the 11th day after tumor implantation, the mice were anesthesized with Nembutal, and the tumor bearing feet surgically amputated above the ankle joint. The surgical incision was swabbed with alcohol and sealed with stainless steel wound clips. The tumor bearing feet were individually weighed and the average weight of a normal foot (determined by weighing amputated feet from non-tumor bearing mice of the same age, sex and body weight) was subtracted to obtain the weight of tumor tissue in the amputated foot. Mice were then observed for deaths until the 90th day after tumor implantation. […]
^1 BDF1 male mice inoculated subcutaneously in footpad with 5
× 10^5 Lewis lung tumor cells on day zero;
as §1, §2, §3
bearing foot on day 11 following tumor implantation.

[3] = cyclophosphamide 80 mg/kg i.p. alone
[4] = cyclophosphamide 80 mg/kg i.p. alone, day 26

SMILES: c1ccc([C@H]2CN3CCSC3=N2)cc1 [levamisole]
- Stimulation of cellular immunity and tumor regression, in words (tumor): shown to stimulate cellular immunity and to produce tumor regression
- Clinical antitumor success, in words [1]: Some successes have been claimed

SMILES: O=P1(N(CCCl)CCCl)NCCCO1 (stereo not shown) [Cyclophosphamide, reference compound]
- Effect on total nucleated cell count of femur marrow, in words (normal mouse bone marrow): depressed the cell count significantly
- Median survival time (B16 melanoma): > 90.0 days
- Average tumor weight (B16 melanoma; Day +21): 202 mg
- Average % of tumor weight inhibition (B16 melanoma; Day +21, * significant (≥58%)): 67%
- No. Survivors/No. Treated (B16 melanoma; at +90 days, ** significant): 7/12
- % Increased life-span (B16 melanoma; + significant (≥25%)): > 70%
- ILS (Percent increase in life span over control) (B-16 melanoma; [3]): 11%
- MST (Median Survival Time) (B-16 melanoma; [3]): 25.0 days
- Number of survivors over number of mice treated (B-16 melanoma; cyclophosphamide 80 mg/kg i.p. alone, day 21): 8/8
- Average tumor weight (B-16 melanoma; cyclophosphamide 80 mg/kg i.p. alone, day 21, p <0.05 vs untreated): 1237 mg
- Average tumor weight (B-16 melanoma; [4]): 7458 mg
- Number of survivors over number of mice treated (B-16 melanoma; [4]): 3/8
- 50% inhibition in local tumor growth, in words (B-16 melanoma; monotherapy, i.p., day +26): failed to do so
- % Reduction in splenomegaly ([2]; 100 mg/kg): 106%
- reduction in splenomegaly ([2]; general statement, no dose, relative to placebo treated RLV-infected mice): ≥ 50%
- Median survival time (Lewis lung carcinoma): > 90.0 days
- Average tumor weight (Lewis lung carcinoma; Day +11): 93 mg
- Average % of tumor weight inhibition (Lewis lung carcinoma; Day +11, * significant (≥58%)): 75%
- No. Survivors/No. Treated (Lewis lung carcinoma; at +90 days, ** p < .05): 10/12
- % Increased life-span (Lewis lung carcinoma; + significant (≥25%)): > 200%
